Measured values from US20170348371A1, “THE ANTI CANCEROUS, ANTIPARASITE (TOXOPLASMA GONDII (PROTOZOON) AND ANTIMICROBIAL EFFECT AND DOSAGE OF NIGELLA (NIGELLA SATIVA) EXTRACT” (priority 2014, published 2017).

Legend:
[1] = tested on: Hep2 cells; assay: MTT cytotoxicity test on Hep2 cell line; format: cell-based, Human
From the text: The oils of the plant as an extract are used which have been obtained by cold pressing and it has been ensured that the extract is fresh and pure. The extracts that have been obtained through the whole study have been initially diluted with solvents, filtered and sterilized. […] The maximum dose and dilution sub doses that have been determined accordingly have been repeated controlled groups. Different amounts of Hep2 cells have been tested in flat bottomed 96 well plates for cell culture during the first stage of the study and it has been determined that […] cells were optimal for the monolayer layer of 2×10^4 cell per well. A pure oil of Nigella plant extract, which has been tested inside various solvents in terms of penetration into cells and homogenous distribution. MTT tests have been carried out relating to Hep2 cells in solvents too. DMSO was selected from solvents such as DMSO and Methanol and was used and cytopathic doses have not been exceeded during the whole study (FIG. 2). Essential oil has been obtained from Nigella and emulsions have been obtained from fixed oil plants (Ginger etc.) and compounds.

[2] = tested on: Toxoplasma gondii; assay: ELISA test of efficiency against Toxoplasma gondii in infected Hep2 cells; format: cell-based; details: for ELISA OD value according to positive control (reproduction) / ELISA value in comparison to PK: 48 hours; for ELISA value: 72 hour plates
From the text: An ELISA (Enzyme-Linked Immunosorbent Assay) test (FIG. 4) has been planned and conducted in order to determine efficiency against Toxoplasma gondii.
The ELISA test has been carried out on flat bottom well plates having 96 wells. First of all the base of the plates have been covered with a suitable amount of Hep2 cells. […] Following this all wells have been processed again with different doses (determined with MTT) of Pyrimtheamine, Sulphadiazine and Nigella Sativa extract, prepared with DMSO.
The result was read by the ELISA reader device in 30 minutes

CCc1nc(N)nc(N)c1-c1ccc(Cl)cc1 [Pyrimethamine]
OD value in MTT test ([1]; 1 μg/ml): 1,228 | OD value in MTT test ([1]; 2 μg/ml): 1,198 | OD value in MTT test ([1]; 4 μg/ml): 0.623 | OD value in MTT test ([1]; 8 μg/ml): 0.310 | OD value in MTT test ([1]; 16 μg/ml): 0.209 | OD value in MTT test ([1]; 32 μg/ml): 0.097 | ELISA OD value according to positive control (reproduction) ([2]; 0.5 μg/ml): 75% | ELISA OD value according to positive control (reproduction) ([2]; 1 μg/ml (printed '2.1 and 0.5 μg/ml doses')): 54% | ELISA OD value according to positive control (reproduction) ([2]; 2 μg/ml (printed '2.1 and 0.5 μg/ml doses')): 56% | ELISA OD value according to positive control (reproduction) ([2]; 4 μg/ml): 45% | ELISA value ([2]; 4 μg/ml (1st dose)): 48% | ELISA value ([2]; 2nd dose of series starting from 4 μg/ml): 29% | ELISA value ([2]; 3rd dose of series starting from 4 μg/ml): 36% | ELISA value ([2]; 4th dose of series starting from 4 μg/ml): 41% | ELISA value ([2]; 5th dose of series starting from 4 μg/ml): 32% | ELISA value ([2]; 6th dose of series starting from 4 μg/ml): 27% | ELISA value ([2]; 7th dose of series starting from 4 μg/ml): 27% | ELISA value ([2]; 8th dose of series starting from 4 μg/ml): 73%

Nc1ccc(S(=O)(=O)Nc2ncccn2)cc1 [Sulphadiazine]
OD value in MTT test ([1]; 50 μg/ml): 1,002 | OD value in MTT test ([1]; 100 μg/ml): 0.827 | OD value in MTT test ([1]; 200 μg/ml): 0.254 | ELISA value in comparison to PK ([2]; 25 μg/ml): 80% | ELISA value in comparison to PK ([2]; 50 μg/ml): 97% | ELISA value in comparison to PK ([2]; 4th dose of series from 100 μg/ml (concentration not given)): 79% | ELISA value in comparison to PK ([2]; 5th dose of series from 100 μg/ml (concentration not given)): 61% | ELISA value in comparison to PK ([2]; 6th dose of series from 100 μg/ml (concentration not given)): 95% | ELISA value in comparison to PK ([2]; 7th dose of series from 100 μg/ml (concentration not given)): 84% | ELISA value in comparison to PK ([2]; 8th dose of series from 100 μg/ml (concentration not given)): 97% | ELISA value in comparison to PK ([2]; concentration of 100 (unit not given)): 51% | ELISA value ([2]; 100 μg/ml (1st dose)): 52% | ELISA value ([2]; 2nd dose of series starting from 100 μg/ml): 57% | ELISA value ([2]; 3rd dose of series starting from 100 μg/ml): 52% | ELISA value ([2]; 4th dose of series starting from 100 μg/ml): 77% | ELISA value ([2]; 5th dose of series starting from 100 μg/ml): 75% | ELISA value ([2]; 6th dose of series starting from 100 μg/ml): 55% | ELISA value ([2]; 7th dose of series starting from 100 μg/ml): 52% | ELISA value ([2]; 8th dose of series starting from 100 μg/ml): 84%
